According to patent publication US20260060964A1, “METHODS AND COMPOSITIONS FOR TREATING SEPSIS” (Antivirus Therapeutics, priority 2021, published 2026):

Key:
[1] = tested on: CYP 3A; settings: oral delivery at 200-400 mg dose level; cited from earlier work
[2] = safety analysis: adverse events in enrolled neonates; format: in vivo, human
Description: (§1) A 2:1 study drug: placebo randomization with randomly permuted block sizes was used. Randomization codes were accessible only to biostatistical personnel at the coordinating center. Subjects initially received 5.0 mg/kg/dose of a 40 mg/mL liquid formulation of pleconaril (ViroPharma, Inc.; Exton, PA) or matching placebo identical in composition except lacking active study drug. The liquid formulation expired on May 31, 2002, after which the formulation was changed by the manufacturer to a 40 mg/mL suspension. Subjects received 8.5 mg/kg/dose of pleconaril suspension (shown to provide similar drug exposure as 5.0 mg/kg/dose of pleconaril liquid) or matching placebo. Both pleconaril formulations and matching placebos were administered every 8 hours×7 days in 1.0 mL of breast milk or formula by mouth or orogastric tube and were given to subjects who were otherwise NPO. Subjects were permitted to receive antibiotics, acyclovir, cardiotropic medications, and IVIG. Subjects for whom an etiology for illness other than EV infection was documented after enrollment had study drug/placebo discontinued. […]
(§2) Specimens for EV culture and polymerase chain reaction (PCR) were obtained from the oropharynx, rectum, urine, and serum on days 1-5, 7, 10, and 14. […] Adverse events were recorded at each evaluation, and relationship to study treatment was determined by site investigators.

[3] = 25° C.; cited from earlier work
[4] = plasma pharmacokinetics in neonates; format: in vivo, human; settings: on D1
Description: as §1, §2

[5] = tested on: human respiratory picornavirus; settings: nasal thixotropic formulation, 12 mg per day nasal spray v. 400 mg oral dose; cited from earlier work
[6] = tested on: enterovirus; assay: virological efficacy: EV culture and PCR in neonates with suspected enterovirus sepsis, placebo-controlled study; format: in vivo, human
Description: (§3) Sixty-one subjects were enrolled; 43 randomized to the treatment group and 18 to the placebo group (FIG. 1). Of these, 43 (70%) were confirmed EV-positive: 31 in the treatment group and 12 in the placebo group. The study was terminated prior to full accrual due to expiration of study drug. […] 8/18 (44%) in the placebo group and lost-to-follow-up in 9/43 (21%) subjects in the treatment group v. 1/18 (6%) in the placebo group. Neonates with suspected EV sepsis (hepatitis, coagulopathy, and/or myocarditis) were enrolled at 19 centers from June 1999-December 2010.
(§4) A 2:1 study drug: placebo randomization with randomly permuted block sizes was used. Randomization codes were accessible only to biostatistical personnel at the coordinating center. Subjects initially received 5.0 mg/kg/dose of a 40 mg/mL liquid formulation of pleconaril (ViroPharma, Inc.; Exton, PA) or matching placebo identical in composition except lacking active study drug. The liquid formulation expired on May 31, 2002, after which the formulation was changed by the manufacturer to a 40 mg/mL suspension. Subjects received 8.5 mg/kg/dose of pleconaril suspension (shown to provide similar drug exposure as 5.0 mg/kg/dose of pleconaril liquid) or matching placebo. Both pleconaril formulations and matching placebos were administered every 8 hours×7 days in 1.0 mL of breast milk or formula by mouth or orogastric tube and were given to subjects who were otherwise NPO. Subjects were permitted to receive antibiotics, acyclovir, cardiotropic medications, and IVIG. Subjects for whom an etiology for illness other than EV infection was documented after enrollment had study drug/placebo discontinued.
(§5) A target sample size of 45 subjects with confirmed EV disease, with an expectation that approximately 67% of enrolled subjects would be confirmed to be EV-infected, was chosen to provide sufficient power to detect a reduction in viral shedding from the oropharynx from 96% to 70% on day 5. EV-confirmed subjects (culture- or PCR-positive) were included in virologic and clinical efficacy analyses, all enrolled subjects were included in safety analyses, and pleconaril recipients for whom pharmacokinetic data were obtained (whether or not EV-infected) were included in pharmacokinetic analyses. Survival analyses were conducted on the total enrolled cohort and on EV-confirmed subjects.
(§6) Fisher's Exact Test was utilized for comparisons of categorical factors and the Kruskal-Wallis and Mann Whitney Tests for continuous factors, with medians and ranges presented. Kaplan-Meier curves and log-rank statistics were utilized to assess differences in duration of culture and PCR positivity and survival between study groups. Changes in toxicity grades from baseline and adverse event rates were compared by chi-square tests.
Specimens for EV culture and polymerase chain reaction (PCR) were obtained from the oropharynx, rectum, urine, and serum on days 1-5, 7, 10, and 14. Plasma for pharmacokinetic analysis was obtained on day 1 (2, 4, and 8 hours after study drug administration) and days 3 and 7 (prior to and 2 and 4 hours after administration). Hematology and chemistry tests were obtained on study days 1, 3, 5, 7, 10, and 14 and urinalyses on days 1 and 7. Persisting abnormalities were followed at visits at 2, 6, 12, 18, and 24 months. Adverse events were recorded at each evaluation, and relationship to study treatment was determined by site investigators.
The primary endpoint was the percentage of patients with a positive viral culture from the oropharynx five days after beginning study drug. Secondary endpoints included duration of culture positivity from oropharynx, rectum, urine and serum; changes in laboratory values reflecting resolution or progression of EV disease or drug toxicity; duration of hospitalization; time to resolution of organ abnormalities; survival; and pleconaril pharmacokinetics. […]

[7] = tested on: neonatal enterovirus infections; assay: clinical efficacy: survival of neonates with suspected enterovirus sepsis, placebo-controlled study; format: in vivo, human
Description: as §3, §4, §5, §6
The primary endpoint was the percentage of patients with a positive viral culture from the oropharynx five days after beginning study drug. Secondary endpoints included duration of culture positivity from oropharynx, rectum, urine and serum; changes in laboratory values reflecting resolution or progression of EV disease or drug toxicity; duration of hospitalization; time to resolution of organ abnormalities; survival; and pleconaril pharmacokinetics. Tertiary endpoints included duration of blood product (fresh frozen plasma, packed red blood cells, platelets, other products) and inotropic support.

Compound: Cc1cc(CCCOc2c(C)cc(-c3noc(C(F)(F)F)n3)cc2C)on1 [Pleconaril, 3-{3,5-dimethyl-4-[3-(3-methylisoxazol-5-yl)propoxy]phenyl}-5-(trifluoromethyl)-1,2,4-oxadiazole]
- induction of CYP 3A (side effect) [1]: induction of CYP 3A
- subjects with adverse events whose events were judged possibly/probably treatment-related ([2]; treatment group v. 18% placebo): 3%
- enrolled subjects who experienced adverse events ([2]; treatment group v. 94% placebo): Eighty-six
- solubility in water [3]: < 0.02 µg/mL
- share with concentrations below IC90 [4]: 41%
- clinical/antiviral effect of nasal spray compared with oral dose [5]: roughly similar clinical/antiviral effect
- EV-confirmed subjects culture-positive from the oropharynx ([6]; day 1, treatment group, 6 of 24): 25%
- subjects shedding cultivable virus from the oropharynx ([6]; day 5 (primary endpoint)): no subjects
- persistence of PCR positivity from OP, compared with placebo ([6]; oropharynx, pleconaril group v. placebo): shorter
- time to culture negativity of all sites combined, compared with placebo ([6]; pleconaril group v. placebo): shorter
- median time to culture-negativity from all sites among culture-positive subjects ([6]; treatment group (19 subjects) v. 7.0 days placebo, p=0.08): 4.0 days
- median time to sustained culture-negativity, urine ([6]; treatment group v. 7.0 days placebo, p=0.05): 4.0 days
- median time to sustained oropharyngeal culture negativity ([6]; treatment group, placebo also 3.0): 3.0 days
- cumulative survival v. placebo, EV-confirmed subjects ([7]; over two months): trends in cumulative survival favoring the treatment group
- cumulative survival over two months v. placebo, all enrolled subjects ([7]; p=0.02): greater
- cumulative survival over 18 months v. placebo ([7]; p=0.07 among all subjects, p=0.23 among EV-confirmed subjects): continued to exceed
- subjects who died, EV-confirmed subjects ([7]; treatment group 7/31 v. placebo 5/12 (42%)): 23%
- subjects who died, all enrolled subjects ([7]; treatment group 10/43 v. placebo 8/18 (44%)): 23%
